Assay results: patent publication US8969555B2, “Bicyclic pyrimidine compounds” (Eli Lilly and Company, priority 2013, dated 2015)

Experiments:
[1] = target: T1, recombinant human autotaxin (Homo sapiens, UniProt Q13822); test: Inhibition of Autotaxin as Measured by Choline Release; format: biochemical; settings: LPC 16:0 30 μM, 37° C. 1 hour, arithmetic mean
T1 construct: full length human autotaxin with a C-terminal His tag transfected into 293E cells; His tag (C); made in house; host or cells: 293E cells

endogenous autotaxin = target: T2, endogenous autotaxin (Homo sapiens, UniProt Q13822); test: Reduction of LPA in the Presence of Human Plasma; format: biochemical; settings: 90% pooled human plasma, 3 hours at 37° C., total LPA by mass spec; arithmetic mean
T2 construct: The increased endogenous LPC levels are cleaved by endogenous autotaxin; tissue Lampire Biologicals; host or cells: pooled human plasma (healthy female donors, sodium heparin)

Structure (SMILES): O=C(COCCc1cnn[nH]1)N1CCc2nc(NC3Cc4ccccc4C3)ncc2C1 [Example 1 and 1a, 1-[2-(2,3-dihydro-1H-inden-2-ylamino)-7,8-dihydropyrido[4,3-d]pyrimidin-6(5H)-yl]-2-[2-(1H-1,2,3-triazol-4-yl)ethoxy]ethanone]
- IC50 [1]: 5.7 nM
- IC50 (endogenous autotaxin): 10 nM
